ChEMBL document CHEMBL1148788 (J Med Chem, 2007)

How the values were obtained:
Type in all cases: functional, cell-based
[1] = Antagonist activity at human alpha-7 nAChR Y188A mutant coexpressed with human Ric3 in tsA201 cells by FMP assay
[2] = Antagonist activity at human alpha-7 nAChR Y195A mutant coexpressed with human Ric3 in tsA201 cells by FMP assay
[3] = Antagonist activity at human alpha7nAChR W149A mutant co-expressed with human Ric3 in tsA201 cells by FMP assay
[4] = Antagonist activity at human alpha7 nAChR W149Y mutant co-expressed with human Ric3 in tsA201 cells by FMP assay
[5] = Antagonist activity at human alpha7nAChR Y93A mutant co-expressed with human Ric3 in tsA201 cells by FMP assay

EC50 ([1]; read-out: EC50): 3900 µM
EC50 ([1]; read-out: pEC50 (converted)): 3890 µM
EC50 ([2]; read-out: EC50): 260 µM
EC50 ([2]; read-out: pEC50 (converted)): 257 µM
EC50 ([3]; read-out: EC50): > 30000 µM
EC50 ([3]; read-out: pEC50 (converted)): > 31600 µM
EC50 ([4]; read-out: EC50): 1500 µM
EC50 ([4]; read-out: pEC50 (converted)): 1580 µM
EC50 ([5]; read-out: EC50): 81 µM
EC50 ([5]; read-out: pEC50 (converted)): 81.3 µM
SMILES: CC(=O)OCC[N+](C)(C)C [ACETYLCHOLINE]
